Reference: the supplement of paper PMC10307832

Experiments:
Experiment in all cases: relative viability (nuclei count vs DMSO), 5 days (fraction); higher = more cells survive
[1] = tested on: SK-LU-1
How it was run: (§1)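 Values are medians from duplicate plates. Each reflects relative viability, defined as the nuclei count of treated wells over that of vehicle wells. Lung cancer cell lines in 1536-well plates were pin-tool dosed one day after seeding with one drug alone or with a fixed anchor-drug dose plus five library-drug doses (not always all listed) in √10 steps, then fixed, stained and imaged at 4× after 5 days.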

[2] = tested on: LCLC-97TM1
How it was run: as §1

[3] = tested on: NCI-H1650
How it was run: as §1

[4] = tested on: CAL-12T
How it was run: as §1

[5] = tested on: NCI-H3122
How it was run: as §1

[6] = tested on: NCI-H322M
How it was run: as §1

[7] = tested on: LXF-289
How it was run: as §1

[8] = tested on: LCLC-103H
How it was run: as §1

[9] = tested on: HOP-62
How it was run: as §1

[10] = tested on: NCI-H1437
How it was run: as §1

[11] = tested on: NCI-H647
How it was run: as §1

[12] = tested on: NCI-H2405
How it was run: as §1

[13] = tested on: HCC-44
How it was run: as §1

[14] = tested on: NCI-H2087
How it was run: as §1

[15] = tested on: NCI-H1395
How it was run: as §1

[16] = tested on: BEN
How it was run: as §1

[17] = tested on: 201T
How it was run: as §1

[18] = tested on: NCI-H1944
How it was run: as §1

[19] = tested on: NCI-H727
How it was run: as §1

[20] = tested on: HCC-827
How it was run: as §1

[21] = tested on: NCI-H1793
How it was run: as §1

[22] = tested on: NCI-H2228
How it was run: as §1

[23] = tested on: RERF-LC-KJ
How it was run: as §1

Q: Which results are given for `O=C(O)c1ccc(-c2c[nH]c3ncc(-c4ccccc4)cc23)cc1C1CCCC1` + CC(=O)c1c(C)c2cnc(Nc3ccc(N4CCNCC4)cn3)nc2n(C2CCCC2)c1=O [Palbociclib] (partner 0.5 µM)?
A: relative viability ([1]; first compound 0.04 µM): 0.358; relative viability ([1]; first compound 0.1265 µM): 0.381; relative viability ([1]; first compound 0.4 µM): 0.366; relative viability ([1]; first compound 1.265 µM): 0.359; relative viability ([2]; first compound 0.04 µM): 0.267; relative viability ([2]; first compound 0.1265 µM): 0.222; relative viability ([2]; first compound 0.4 µM): 0.187; relative viability ([2]; first compound 1.265 µM): 0.217; relative viability ([3]; first compound 0.04 µM): 0.34; relative viability ([3]; first compound 0.1265 µM): 0.285; relative viability ([3]; first compound 0.4 µM): 0.321; relative viability ([3]; first compound 1.265 µM): 0.193; relative viability ([4]; first compound 0.04 µM): 0.496; relative viability ([4]; first compound 0.1265 µM): 0.442; relative viability ([4]; first compound 0.4 µM): 0.499; relative viability ([4]; first compound 1.265 µM): 0.384; relative viability ([5]; first compound 0.04 µM): 0.201; relative viability ([5]; first compound 0.1265 µM): 0.175; relative viability ([5]; first compound 0.4 µM): 0.174; relative viability ([5]; first compound 1.265 µM): 0.198; relative viability ([6]; first compound 0.04 µM): 0.466; relative viability ([6]; first compound 0.1265 µM): 0.461; relative viability ([6]; first compound 0.4 µM): 0.448; relative viability ([6]; first compound 1.265 µM): 0.461; relative viability ([7]; first compound 0.04 µM): 0.573; relative viability ([7]; first compound 0.1265 µM): 0.584; relative viability ([7]; first compound 0.4 µM): 0.57; relative viability ([7]; first compound 1.265 µM): 0.521; relative viability ([8]; first compound 0.04 µM): 0.412; relative viability ([8]; first compound 0.1265 µM): 0.486; relative viability ([8]; first compound 0.4 µM): 0.465; relative viability ([8]; first compound 1.265 µM): 0.469; relative viability ([9]; first compound 0.04 µM): 0.426; relative viability ([9]; first compound 0.1265 µM): 0.414; relative viability ([9]; first compound 0.4 µM): 0.443; relative viability ([9]; first compound 1.265 µM): 0.434; relative viability ([10]; first compound 0.04 µM): 0.326; relative viability ([10]; first compound 0.1265 µM): 0.319; relative viability ([10]; first compound 0.4 µM): 0.311; relative viability ([10]; first compound 1.265 µM): 0.193; relative viability ([11]; first compound 0.04 µM): 0.399; relative viability ([11]; first compound 0.1265 µM): 0.434; relative viability ([11]; first compound 0.4 µM): 0.453; relative viability ([11]; first compound 1.265 µM): 0.33; relative viability ([12]; first compound 0.04 µM): 0.529; relative viability ([12]; first compound 0.1265 µM): 0.557; relative viability ([12]; first compound 0.4 µM): 0.517; relative viability ([12]; first compound 1.265 µM): 0.473; relative viability ([13]; first compound 0.04 µM): 0.967; relative viability ([13]; first compound 0.1265 µM): 0.938; relative viability ([13]; first compound 0.4 µM): 0.875; relative viability ([13]; first compound 1.265 µM): 0.805; relative viability ([14]; first compound 0.04 µM): 0.214; relative viability ([14]; first compound 0.1265 µM): 0.267; relative viability ([14]; first compound 0.4 µM): 0.214; relative viability ([14]; first compound 1.265 µM): 0.248; relative viability ([15]; first compound 0.04 µM): 0.567; relative viability ([15]; first compound 0.1265 µM): 0.66; relative viability ([15]; first compound 0.4 µM): 0.618; relative viability ([15]; first compound 1.265 µM): 0.567; relative viability ([16]; first compound 0.04 µM): 0.459; relative viability ([16]; first compound 0.1265 µM): 0.422; relative viability ([16]; first compound 0.4 µM): 0.455; relative viability ([16]; first compound 1.265 µM): 0.454; relative viability ([17]; first compound 0.04 µM): 0.353; relative viability ([17]; first compound 0.1265 µM): 0.364; relative viability ([17]; first compound 0.4 µM): 0.341; relative viability ([17]; first compound 1.265 µM): 0.364; relative viability ([18]; first compound 0.04 µM): 0.349; relative viability ([18]; first compound 0.1265 µM): 0.376; relative viability ([18]; first compound 0.4 µM): 0.315; relative viability ([18]; first compound 1.265 µM): 0.314; relative viability ([19]; first compound 0.04 µM): 0.676; relative viability ([19]; first compound 0.1265 µM): 0.662; relative viability ([19]; first compound 0.4 µM): 0.652; relative viability ([19]; first compound 1.265 µM): 0.638; relative viability ([20]; first compound 0.04 µM): 0.354; relative viability ([20]; first compound 0.1265 µM): 0.474; relative viability ([20]; first compound 0.4 µM): 0.434; relative viability ([20]; first compound 1.265 µM): 0.328; relative viability ([21]; first compound 0.04 µM): 0.248; relative viability ([21]; first compound 0.1265 µM): 0.338; relative viability ([21]; first compound 0.4 µM): 0.302; relative viability ([21]; first compound 1.265 µM): 0.31; relative viability ([22]; first compound 0.04 µM): 0.885; relative viability ([22]; first compound 0.1265 µM): 0.736; relative viability ([22]; first compound 0.4 µM): 0.886; relative viability ([22]; first compound 1.265 µM): 0.5; relative viability ([23]; first compound 0.04 µM): 1.01; relative viability ([23]; first compound 0.1265 µM): 1.02; relative viability ([23]; first compound 0.4 µM): 0.97; relative viability ([23]; first compound 1.265 µM): 0.875
